How the values were obtained:
[1] = test system: Vancomycin-resistant E. faecium (VanA, ATCC 51559); assay: MIC, micro-dilution broth, VREm; assay type: cell-based
Description: (§1) Test compounds were assayed in a micro-dilution broth format. Stock solutions were made by serially diluting the compounds using autoclaved millipore water or broth media. The antibacterial activity of the compounds was determined against gram positive bactreia like methicillin-resistant S. aureus (MRSA), vancomycin-intermediate-resistant S. aureus (VISA), vancomycin-sensitive E. faecium (VSE), vancomycin-resistant E. faecalis and vancomycin-resistant E. faecium (VRE). Antibacterial activity of dipicolyl-vancomycin conjugate conjugate (4) in combination with meropemem was determined against gram-negative bacteria such as K. pneumoniae ATCC BAA2146, clinical isolates K. pneumoniae R3949, K. pneumoniae R3934, E. coli R3336 and A. baumanii R676. Bacteria, to be tested, were grown for about 10 h in the suitable media, MRSA, VISA and gram negative bacteria were grown in Yeast-dextrose broth (about 1 g of beef extract, about 2 g of yeast extract, about 5 g of peptone and about 5 g of NaCl in about 1000 mL of sterile distilled water (pH-7)). For solid media, about 5% agar was used along with above mentioned composition. VSE and VRE were cultured in Brain Heart Infusion broth (Himedia). The bacterial samples were freeze dried and stored at −80° C. About 5 μL of these stocks were added to about 3 mL of the nutrient broth or Brain Heart Infusion broth and the culture was grown for about 6 h at about 37° C. prior to the experiments. This 6 h grown culture gives about 10^9 cfu/mL and this was determined by spread plating method. The 6 h grown culture was diluted to give effective cell concentration of about 10^5 cfu/mL which was then used for determining MIC. Compounds were serially diluted, in sterile water (2-fold dilution is employed) in a way that the working concentration was about 10 μM for MRSA, and VSE while for VRE, VISA and gram negative bacteria; it was about 100 μM. About 50 μL of these serial dilutions were added to the wells of 96 well plate followed by the addition of about 150 μL of bacterial solution. The plates were then incubated at about 37° C., 150 rpm in the incubator and O.D at 620 nm was recorded at an interval of about 24 h using TECAN (Infinite series, M200 pro) Plate Reader. Each concentration had triplicate values and the whole experiment was done at least twice and the MIC value was determined by taking the average of triplicate O.D. values for each concentration and plotting it against concentration. The data was then subjected to sigmoidal fitting.

[2] = target: T1, NDM-1 enzyme (Klebsiella pneumoniae, UniProt C7C422); assay: NDM-1 enzyme inhibition, nitrocefin substrate; assay type: biochemical
T1 construct: made in house; host or cells: E. coli BL21 (DE3)
Description: The NDM-1 was produced by E. coli BL21 (DE3) carrying pET30a-NDM-1 in LB medium. Initially, the purified NDM-1 enzyme (5 nM, HEPES buffer, pH-7.4) was supplemented with 20 μM ZnSO4 for 30 min. Next, the enzyme was pre-incubated with the inhibitor (compound 4) for 20 min prior to the initiation of the assay by the addition of the substrate (Nitrocefin, 30 μM). Assays were read in 96-well microplate format at 490 nm (absorbance) using TECAN plate reader (Infinite Pro.) at 37° C. IC50s were deduced from a plot of percent loss of activity versus inhibitor concentration.

[3] = test system: NDM-1 expressing Klebsiella pneumoniae R3949; assay: microbe, parasite or virus in culture; assay type: cell-based; conditions: Klebsiella pneumoniae R3949
Description: as §1
(§2) Then, the antibacterial activities of Dipicolyl-vancomycin conjugate (4) is checked in combination with meropenem against New-Delhi β-lactamase producing gram negative bacteria such as K. pneumoniae BAA2146, clinical isolates K. pneumoniae R3949, K. pneumoniae R3934, E. coli R3336 and A. baumanii R676. […] Further we have also evaluated the antibacterial activity of dipicolyl-vancomycin conjugate (4) in presence of zinc sulphate, wherein it forms dipicolyl-vancomycin-zinc complex (5).

[4] = test system: NDM-1 expressing Klebsiella pneumoniae ATCC BAA2146; assay: microbe, parasite or virus in culture; assay type: cell-based; conditions: Klebsiella pneumoniae ATCC BAA2146
Description: as §1, §2

[5] = test system: NDM-1 expressing Escherichia coli R3336; assay: microbe, parasite or virus in culture; assay type: cell-based; conditions: Escherichia coli R3336
Description: as §1, §2

[6] = test system: NDM-1 expressing Klebsiella pneumoniae R3934; assay: microbe, parasite or virus in culture; assay type: cell-based; conditions: Klebsiella pneumoniae R3934
Description: as §1, §2

[7] = In-vivo toxicology, systemic toxicity; conditions: 100 mg/kg
Description: To evaluate maximum tolerability of the new glycopeptide, systemic toxicity was performed on CD-1 female mice. Each mouse was injected with a 0.2 mL of freshly prepared compound 4 solution in saline. The dose of the compound administered was 100 mg/kg (n=5).

[8] = test system: VREs ATCC 51575; assay type: in vivo, E. faecalis; conditions: CD-1 mice, 12 mg/kg i.p. once daily, three doses
Description: Female CD-1 mice 6 to 8 weeks of age and weighing 20 to 25 g were used in this study. On day −7, all mice were injected intravenously (i.v.) with 0.2 mL of 0.2% λ-carrageenan to increase their susceptibility to bacterial renal infection. λ-Carrageenan increases mice susceptibility to renal infection following i.v. injection, possibly by forming a lattice structure in renal tissue and forming a support structure for bacterial attachment and growth. Bacterial strains that fail to cause renal infection in normal mice produce significant renal infections in λ-carrageenan-treated mice. On day 0, all mice were injected i.v. with 0.2 mL of the bacterial culture (VREs ATCC 51575, 10^8 CFU/mouse) through the tail vein. Four hours after the bacterial inoculation, mice were treated intraperitoneally (i.p.) with vancomycin, compound 4 and linezolid at 12 mg/kg of body weight or 0.2 mL of saline (0.9% NaCl) control (n=5). All the test compounds or saline were administered once daily for an additional two consecutive days for a total of three doses. All mice were sacrificed on day 3. Both kidneys from each mouse were removed aseptically and homogenized in 10 mL of saline. The dilutions of the homogenate were plated onto sheep blood agar plates, which were incubated overnight at about 37° C. The bacterial titer was expressed as log10 CFU/g of kidney weight.

T1 sequence (C7C422 29-270, looked up, species assumed): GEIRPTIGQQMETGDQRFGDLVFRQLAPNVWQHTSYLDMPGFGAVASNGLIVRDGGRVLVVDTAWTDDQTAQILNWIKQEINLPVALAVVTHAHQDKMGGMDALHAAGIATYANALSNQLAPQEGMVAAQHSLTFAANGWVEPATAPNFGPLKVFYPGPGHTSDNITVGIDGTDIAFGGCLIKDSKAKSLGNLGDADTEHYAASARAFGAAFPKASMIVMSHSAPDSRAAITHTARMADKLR

For `CN[C@H](CC(C)C)C(=O)N[C@H]1C(=O)N[C@@H](CC(N)=O)C(=O)N[C@H]2C(=O)N[C@H]3C(=O)N[C@H](C(=O)N[C@H](C(=O)NCCCCCCN(Cc4ccccn4)Cc4ccccn4)c4cc(O)cc(O)c4-c4cc3ccc4O)[C@H](O)c3ccc(c(Cl)c3)Oc3cc2cc(c3O[C@H]2OC(CO)[C@H](O)C(O)C2O[C@H]2CC(C)(N)[C@H](O)C(C)O2)Oc2ccc(cc2Cl)[C@H]1O` (stereo partly drawn) [Compound 4, Dipicolyl-vancomycin conjugate], the MIC ([1]; Enterococcus faecium, ATCC51559) was 1.2 µM, the “fold more active than vancomycin” value ([1]; VREm (VRE), ratio of MIC values) was “about 700 fold” and the IC50 [2] was about 6 µM. The “effect on the activity of NDM-1” value ([2]; nitrocefin as substrate) was “potent in-vitro dose-dependent inhibition”, the “MIC of Meropenem in presence of compound 4 at 12 μM” value (shortened to “MIC of Meropenem”) [3] was 3.1 µg/mL and the “MIC of Meropenem” value [4] was 1.5 µg/mL. For the same compound, the “MIC of Meropenem” value [5] was 12 µg/mL, the “MIC of Meropenem” value [6] was 3.1 µg/mL and the “survival at 14 days” value ([7]; CD-1 female mice) was “All the mice were found to survive”. The LD50 at 14 days ([7]; female, CD-1, mouse, in vivo) was over 100 mg/kg, the “reduction of bacterial titer from infected kidneys in comparison to vancomycin” value [8] was “reduced bacterial titer from the infected kidneys more effectively” and the “CFU reduction compared to vehicle treated control (saline)” value ([8]; kidneys) was about 5.0 log10 CFU.
